Test results published in patent US5712298A, “Fluoroalkoxy-substituted benzamides and their use as cyclic nucleotide phosphodiesterase inhibitors” (BYK Gulden Lomberg Chemische Fabrik GmbH, priority 1993, dated 1998).
One block for each compound: values may come before it.

What was measured:
conscious guinea-pigs = test: Effect on dyspnoea and migration of proinflammatory cells into the airway lumen after allergic reaction of conscious guinea-pigs; format: in vivo, guinea-pig; conditions: 30 μmol/kg p.o.
From the text: 2. Effect of dyspnoea and migration of proinflammatory (immunocompetent) cells from the blood vessels into the airway lumen after allergic reaction of conscious guinea-pigs
Immunocompetent blood cells (leucocytes) appear in the airway lumens under the influence of allergic, inflammatory reactions. This pathological migration can support itself, i.e. lead to chronic changes, and plays an important part as a pathological mechanism of chronic airway obstruction (of asthma) but also of allergic rhinitis and/or conjunctivitis. The inhibition of the migration by pharmaceuticals is an important therapeutic principle and is a measure of antiallergic or antiinflammatory actions.
The experimental animal methodology employed for the measurement of the acute effect of an allergic reaction on respiration and cell migration itself essentially follows the descriptions of P. A. Hutson et al. (Am. Rev. Respir. Dis., 137, 548, 1988) and J. P. Tarayre et al. (J. Parmacol. Meth., 23, 13, 1990) and also R. Beume et al. (Atemw. Lungenkrkh., 11, 324, 1985).
A defined guinea-pig collective is sensitized intraperitoneally to ovalbumin (20 μg+20 mg of Al(OH)3). 14 days later, the animals are tested:
0 h provocation of the allergic reaction, thoracographic latency time measurement until occurrence of dyspnoea, non-occurrence=protective action.
+24 h anaesthesia and bronchoalveolar lavage: Determination of the total cell number, counting of the differential cell picture in the lavage, determination of the protein content in the cell-free supernatant of the lavage.
The controlled used in each case was 1 random sample of sensitized animals: Placebo treatment+sham provocation or placebo treatment+provocation.
The compound of Example 1 (=compound 1), 30 μmol/kg p.o., acts on the parameters of this relation as follows: […]

PDE IV = test: Inhibition of PDE IV activity; format: biochemical
[1] = bronchoalveolar lavage +24 h after provocation
[2] = cell-free supernatant of lavage +24 h after provocation

-log IC50 (PDE IV): 8.64
Compound: COc1cc(C(=O)Nc2c(Cl)cncc2Cl)ccc1OC(F)F [Compound 1, N-(3,5-Dichloropyrid-4-yl)-4-difluoromethoxy-3-methoxybenzamide]
Passage of cells and protein after provocation (conscious guinea-pigs; base values = placebo + sham provocation): inhibits these passages to base values
Eosinophilic granulocytes, median (conscious guinea-pigs; [1]): 1.2 × 10^6 /10 ml
Eosinophilic granulocytes, median: bracketed value (relative to placebo + sham provocation = 1) (conscious guinea-pigs; [1]): 1.5
Eosinophilic granulocytes, min./max. (conscious guinea-pigs; [1]): 0.6-2.5 × 10^6 /10 ml
Macrophages, median (conscious guinea-pigs; [1]): 1.2 × 10^6 /10 ml
Macrophages, median: bracketed value (relative to placebo + sham provocation = 1) (conscious guinea-pigs; [1]): 0.8
Macrophages, min./max. (conscious guinea-pigs; [1]): 0.9-2.3 × 10^6 /10 ml
Neutrophilic granulocytes, median (conscious guinea-pigs; [1]): 0.0 × 10^6 /10 ml
Neutrophilic granulocytes, median: bracketed value (relative to placebo + sham provocation = 1) (conscious guinea-pigs; [1]): 0
Neutrophilic granulocytes, min./max. (conscious guinea-pigs; [1]): 0.0-0.08 × 10^6 /10 ml
Total leucocytes, median (conscious guinea-pigs; [1]): 2.5 × 10^6 /10 ml
Total leucocytes, median: bracketed value (relative to placebo + sham provocation = 1) (conscious guinea-pigs; [1]): 1.1
Total leucocytes, min./max. (conscious guinea-pigs; [1]): 1.5-4.2 × 10^6 /10 ml
Protein content, median (conscious guinea-pigs; [2]): 4.1 mg/10 ml
Protein content, median: bracketed value (relative to placebo + sham provocation = 1) (conscious guinea-pigs; [2]): 1.1
Protein content, min./max. (conscious guinea-pigs; [2]): 2.6-11.0 mg/10 ml
N, of which protected (conscious guinea-pigs; ovalbumin provocation, N = 14, non-occurrence of dyspnoea = protective action): 8 animals

-log IC50 (PDE IV): 8.42
Compound: O=C(Nc1c(Cl)cncc1Cl)c1ccc(OC(F)F)c(OC(F)F)c1 [Compound 2, N-(3,5-Dichloropyrid-4-yl)-3,4-bis-difluoromethoxybenzamide]

-log IC50 (PDE IV): 8.74
Compound: O=C(Nc1c(Cl)cncc1Cl)c1ccc(OC(F)F)c(OCC2CCC2)c1 [Compound 3, N-(3,5-Dichloropyrid-4-yl)-3-cyclobutylmethoxy-4-difluoromethoxybenzamide]

-log IC50 (PDE IV): 9.18
Compound: O=C(Nc1c(Cl)cncc1Cl)c1ccc(OC(F)F)c(OC2CCCC2)c1 [Compound 4, N-(3,5-Dichloropyrid-4-yl)-3-cyclopentyloxy-4-difluoromethoxybenzamide]
